{"source": "patent US5349127A", "about": "“Expression of herbicide metabolizing cytochromes P450” (priority 1992, dated 1994)", "key": {"S. lividans pCAO200": {"test_system": "S. lividans pCAO200", "test": "Sulfonylurea metabolism by washed cell suspension (Examples 6-9)", "type": "in vitro ADME, Streptomyces lividans", "conditions": "substrate 10010"}, "[1]": {"test_system": "S. lividans pCAO200SU1-FeS-B#9", "test": "Sulfonylurea metabolism by washed cell suspension (Examples 6-9)", "type": "in vitro ADME, Streptomyces lividans", "conditions": "substrate 10010", "procedure": "(§1) Herbicides and their metabolites are measured by HPLC as described by Romesser et al., BBRC 140: 650-659 (1986), herein incorporated by reference, except that 0.1% H3 PO4 is used in both solvents. Chromatographic identity and quantitation of the herbicides and their resulting metabolites is determined by comparing them chromatographically with authentic standard compounds. Identity of the resulting metabolites is also confirmed by UV spectroscopy.\nA 100 ml culture of S. griseolus ATCC 11796 in sporulation broth and a 50 ml culture of S. lividans transformed with pCAO400 in YEME broth were prepared and incubated for 24 hours as described. At that time, the S. griseolus culture was split into two 50 ml aliquots into two separate flasks and 25 ml of fresh sporulation broth was added to each and 9 mg of […] was added to one of these cultures to induce cytochrome P450SU1 expression. Fresh YEME broth (25 ml) was added to the S. lividans culture. After an additional 6 hours growth at 30° C., the cells in each culture were harvested as described above, washed twice with MOPS (50 mM, pH 7.2) and recentrifuged. The cell pellets were resuspended in four cell volumes of MOPS (50 mM, pH 7.2) containing 0.2% glucose and about 100 μg/ml of 10004. These cell suspensions were incubated at 30° C. with shaking and aliqouts were taken at 2 and 5.5 hours. The supernatant of each aliquot was analyzed by HPLC and the concentrations of the sulfonylurea compound 10004 and its metabolite 10005 were determined.\nS. lividans transformed respectively with pCAO200SU1-FeS-B#9, pCAO200SU#112and pCAO200 were cultured for 36 hours in 400 ml of YEME broth at 30° C. S. griseolus ATCC 11796 was similarly cultured in 400 ml of sporulation broth. Six hours before harvesting the cells, 150 ml of fresh YEME broth was added to the S. lividans cells, and the S. griseolus cells were split into two 200 ml cultures with 100 ml of fresh sporulation broth added to each. 10001 (36 mg) was added to one of the two S. griseolus cultures to induce cytochrome P450SU1. […]"}, "[2]": {"test_system": "S. lividans pCAO200SU1#12", "test": "Sulfonylurea metabolism by washed cell suspension (Examples 6-9)", "type": "in vitro ADME, Streptomyces lividans", "conditions": "substrate 10010", "procedure": "as §1, with “spectroscopy. […]” for “spectroscopy.”\nS. lividans transformed respectively with pCAO200SU1-FeS-B#9, pCAO200SU#112and pCAO200 were cultured for 36 hours in 400 ml of YEME broth at 30° C. S. griseolus ATCC 11796 was similarly cultured in 400 ml of sporulation broth. Six hours before harvesting the cells, 150 ml of fresh YEME broth was added to the S. lividans cells, and the S. griseolus cells were split into two 200 ml cultures with 100 ml of fresh sporulation broth added to each. 10001 (36 mg) was added to one of the two S. griseolus cultures to induce cytochrome P450SU1. The cells were prepared as described above in Example 5 and the concentrations of the sulfonylurea compound 10006 and its metabolites 10007, 10008 or 10009 were determined."}, "[3]": {"test_system": "leaves of transformed tobacco", "test": "Metabolism of 10015 to 10014 in excised tobacco leaves (Example 20)", "type": "in vitro ADME, Nicotiana tabacum", "procedure": "Plants were grown from tobacco seed produced by self-pollinated transformed plants in Metro-Mix® 350 under 16 hour light (light intensity of 400 μEinsteins per second per square meter at pot level, 22° C. and 80% relative humidity) followed by 8 hours of dark (18° C. and 70 to 80% relative humidity) and watered three times daily with half strength Hoagland's solution. The presence of the cytochrome P450 protein in individual plants was confirmed by Western blot analysis before testing for sulfonylurea metabolism.\nDuring growth, the tobacco plants produced leaves attached to the main stalk, none of which were of the same age or size. Removal of leaves attached to the main stalk of each plant forced the growth of lateral shoots which in turn produced the many leaves of similar size and age needed for the experiments. The leaves were excised under water with a scalpel. These leaves were transferred to cups with the uptake solution (20 ppm sulfonylurea in 1 mM potassium phosphate buffer, pH 7.0) and allowed to take up the solution through the cut leaf base for 2 hours in the light (200 μEinsteins per second per sq. meter) at 22° C. and 86% relative humidity. At the end of the uptake period, sample leaves were either frozen in liquid nitrogen and stored at -20° C. (designated '0 hour post-uptake samples') or transferred to cups with phosphate buffer alone for an additional 5 hours of incubation in the light before freezing (designated 5 hour post-uptake samples'). In the 10001 experiments some leaves were incubated for 21 hours post-uptake under continuous light (200 μEinsteins per second per square meter, 22° C., and 63% relative humidity).\nIndividual leaves were extracted with 30 ml acetone/water (80%/20% by volume) for 1 minute in a Sorvall® Omni-Mixer. The brei was centrifuged to remove the tissue debris. Acetone in the supernatant was removed under a stream of nitrogen. The resulting aqueous extract was acidified to pH 2 to 3 with sulfuric acid and then extracted three times with methylene chloride. The combined methylene chloride extracts were reduced to dryness by rotary evaporation at 30° to 40° C. The dry residue was dissolved in acetone for transfer to a vial. Once transferred the acetone was removed by evaporation under a stream of nitrogen. Before HPLC analysis the dry sample was redissolved in 1.0 ml of acetonitrile/water (25%/75%). HPLC separations were carried out on a Zorbax® ODS column (4.6 mm×250 man) at 45° C. with a flow rate of 1.4 ml per minute. […] 10015 and its metabolites were detected at 254 nm while ^14 C-10001 and its metabolites were detected with a Radiomatic Flo-One® detector. A diode array detector was used in separate experiments to obtain the absorbance spectra of the 10015 metabolite and an 10014 standard in the HPLC analysis of several extracts (HPLC method is described in Romesser et al., Biochem. Biophys. Res. Comm., 140:650-659 (1986)). Comparison of the metabolite absorbance spectrum with that of the 10014 confirmed the metabolite's identity."}}}
{"compound": "COC(=O)c1ccccc1S(=O)(=O)NC(=O)Nc1nc(C)cc(C(=O)O)n1", "note": "[compound 10012, N-[(4-carboxy-6-methylpyrimidin-2yl)aminocarbonyl]-2-methoxycarbonylbenzenesulfonamide]", "values": [{"measurement": "concentration in supernatant", "setting": "S. lividans pCAO200; 2 h", "result": 0, "unit": "nM"}, {"measurement": "concentration in supernatant", "setting": "S. lividans pCAO200; 4 h", "result": 0, "unit": "nM"}, {"measurement": "concentration in supernatant", "setting": "S. lividans pCAO200; 6 h", "result": 0, "unit": "nM"}, {"measurement": "concentration in supernatant", "setting": "[1]; 2 h", "result": 2, "unit": "µM"}, {"measurement": "concentration in supernatant", "setting": "[1]; 4 h", "result": 12, "unit": "µM"}, {"measurement": "concentration in supernatant", "setting": "[1]; 6 h", "result": 20, "unit": "µM"}, {"measurement": "concentration in supernatant", "setting": "[2]; 2 h", "result": 0, "unit": "nM"}, {"measurement": "concentration in supernatant", "setting": "[2]; 4 h", "result": 0, "unit": "nM"}, {"measurement": "concentration in supernatant", "setting": "[2]; 6 h", "result": 0, "unit": "nM"}]}
{"compound": "COc1cc(OC)nc(NC(=O)NS(=O)(=O)c2cccc3c2S(=O)(=O)NC3)n1", "note": "[compound 10014, 2,3-dihydro-N-[(4,6-dimethoxypyrimidin-yl)aminocarbonyl]-1,2-benzisothiazol-7-sulfonamide-1,1-dioxide]", "values": [{"measurement": "10014 levels", "setting": "[3]; AGS112 (control, no P450SU1), 0 hour post-uptake", "result": 0, "unit": "μg/leaf"}, {"measurement": "10014 levels", "setting": "[3]; AGS112 (control, no P450SU1), 5 hour post-uptake", "result": 0, "unit": "μg/leaf"}, {"measurement": "10014 levels", "setting": "[3]; Cab-SU131.5 (chloroplast directed), 0 hour post-uptake", "result": 1.3, "unit": "μg/leaf"}, {"measurement": "10014 levels", "setting": "[3]; Cab-SU131.5 (chloroplast directed), 5 hour post-uptake", "result": 2.9, "unit": "μg/leaf"}, {"measurement": "10014 levels", "setting": "[3]; SSU-SU111.5 (chloroplast directed), 0 hour post-uptake", "result": 2.1, "unit": "μg/leaf"}, {"measurement": "10014 levels", "setting": "[3]; SSU-SU111.5 (chloroplast directed), 5 hour post-uptake", "result": 1.8, "unit": "μg/leaf"}, {"measurement": "10014 levels", "setting": "[3]; SSU-SU121.3 (chloroplast directed), 0 hour post-uptake", "result": 1.2, "unit": "μg/leaf"}, {"measurement": "10014 levels", "setting": "[3]; SSU-SU121.3 (chloroplast directed), 5 hour post-uptake", "result": 1.7, "unit": "μg/leaf"}, {"measurement": "10014 levels", "setting": "[3]; SU18.15 (cytoplasm directed), 0 hour post-uptake", "result": 0, "unit": "μg/leaf"}, {"measurement": "10014 levels", "setting": "[3]; SU18.15 (cytoplasm directed), 5 hour post-uptake", "result": 0, "unit": "μg/leaf"}, {"measurement": "10014 levels", "setting": "[3]; SU18.8 (cytoplasm directed), 0 hour post-uptake", "result": 0, "unit": "μg/leaf"}, {"measurement": "10014 levels", "setting": "[3]; SU18.8 (cytoplasm directed), 5 hour post-uptake", "result": 0, "unit": "μg/leaf"}, {"measurement": "10014 levels", "setting": "[3]; W38, 20 ppm 10015 uptake 2 h, 0 hour post-uptake", "result": 0, "unit": "μg/leaf"}, {"measurement": "10014 levels", "setting": "[3]; W38, 20 ppm 10015 uptake 2 h, 5 hour post-uptake", "result": 0, "unit": "μg/leaf"}]}
